Results published in ChEMBL document CHEMBL1687752, “Impact of antifungal prophylaxis on colonization and azole susceptibility of Candida species” (2009).
≈ marks a conversion by molar mass, not a printed value.

test system: Nakaseomyces glabratus; test: Antifungal activity against Candida glabrata isolated from HSCT recipients with acute or chronic GVHD receiving fluconazole by broth microdilution method; type: functional; details: not given

SMILES | MIC50 | MIC90
OC(Cn1cncn1)(Cn1cncn1)c1ccc(F)cc1F [FLUCONAZOLE] | 32 µg/mL (≈ 104 µM) | 64 µg/mL (≈ 209 µM)

test system: Nakaseomyces glabratus; test: Antifungal activity against Candida glabrata isolated from HSCT recipients with acute or chronic GVHD prior to initiation of posaconazole therapy assessed as maximum MIC by broth microdilution method; type: functional; details: not given

SMILES | MIC
OC(Cn1cncn1)(Cn1cncn1)c1ccc(F)cc1F [FLUCONAZOLE] | 64 µg/mL

test system: Nakaseomyces glabratus; test: Antifungal activity against Candida glabrata isolated from HSCT recipient 474 with acute or chronic GVHD mouth after 124 days prophylaxis by broth microdilution method; type: functional; details: not given

SMILES | MIC
OC(Cn1cncn1)(Cn1cncn1)c1ccc(F)cc1F [FLUCONAZOLE] | 16 µg/mL (≈ 52.2 µM)

test system: Nakaseomyces glabratus; test: Antifungal activity against Candida glabrata isolated from neutropenic subjects with AML or MDS prior to initiation of fluconazole therapy assessed as maximum MIC by broth microdilution method; type: functional; details: not given

SMILES | MIC
OC(Cn1cncn1)(Cn1cncn1)c1ccc(F)cc1F [FLUCONAZOLE] | 64 µg/mL

test system: Pichia kudriavzevii; test: Antifungal activity against Candida krusei isolated from neutropenic subjects with AML or MDS receiving fluconazole assessed as maximum MIC by broth microdilution method; type: functional; details: not given

SMILES | MIC
OC(Cn1cncn1)(Cn1cncn1)c1ccc(F)cc1F [FLUCONAZOLE] | 64 µg/mL

test system: Nakaseomyces glabratus; test: Antifungal activity against Candida glabrata isolated from neutropenic subject 1331 with AML or MDS pharynx after 21 days prophylaxis by broth microdilution method; type: functional; details: 504 h

SMILES | MIC
OC(Cn1cncn1)(Cn1cncn1)c1ccc(F)cc1F [FLUCONAZOLE] | 8 µg/mL (≈ 26.1 µM)

test system: Nakaseomyces glabratus; test: Antifungal activity against 176 days cultured Candida glabrata isolated from HSCT recipient with acute or chronic GVHD mouth receiving antifungal therapy for 168 days after 113 days of prophylaxis by broth microdilution method; type: functional; details: not given

SMILES | MIC
OC(Cn1cncn1)(Cn1cncn1)c1ccc(F)cc1F [FLUCONAZOLE] | > 64 µg/mL

test system: Candida tropicalis; test: Antifungal activity against -3 days cultured Candida tropicalis isolated from neutropenic subject with AML or MDS pharynx receiving antifungal therapy for 45 days after 24 days of prophylaxis by broth microdilution method; type: functional; details: not given

SMILES | MIC
OC(Cn1cncn1)(Cn1cncn1)c1ccc(F)cc1F [FLUCONAZOLE] | 0.5 µg/mL (≈ 1.63 µM)

test system: Nakaseomyces glabratus; test: Antifungal activity against Candida glabrata isolated from HSCT recipient 186 with acute or chronic GVHD mouth after 112 days prophylaxis by broth microdilution method; type: functional; details: not given

SMILES | MIC
OC(Cn1cncn1)(Cn1cncn1)c1ccc(F)cc1F [FLUCONAZOLE] | 8 µg/mL (≈ 26.1 µM)

test system: Nakaseomyces glabratus; test: Antifungal activity against Candida glabrata isolated from neutropenic subjects with AML or MDS receiving fluconazole assessed as maximum MIC by broth microdilution method; type: functional; details: not given

SMILES | MIC
OC(Cn1cncn1)(Cn1cncn1)c1ccc(F)cc1F [FLUCONAZOLE] | 16 µg/mL

test system: Candida albicans; test: Antifungal activity against Candida albicans isolated from HSCT recipients with acute or chronic GVHD prior to initiation of posaconazole therapy assessed as maximum MIC by broth microdilution method; type: functional; details: not given

SMILES | MIC
OC(Cn1cncn1)(Cn1cncn1)c1ccc(F)cc1F [FLUCONAZOLE] | 64 µg/mL

test system: Nakaseomyces glabratus; test: Antifungal activity against Candida glabrata isolated from HSCT recipient 002 with acute or chronic GVHD mouth after 116 days prophylaxis by broth microdilution method; type: functional; details: not given

SMILES | MIC
OC(Cn1cncn1)(Cn1cncn1)c1ccc(F)cc1F [FLUCONAZOLE] | 16 µg/mL (≈ 52.2 µM)

test system: Nakaseomyces glabratus; test: Antifungal activity against Candida glabrata isolated from neutropenic subjects with AML or MDS prior to initiation of fluconazole therapy by broth microdilution method; type: functional; details: not given

SMILES | MIC50 | MIC90
OC(Cn1cncn1)(Cn1cncn1)c1ccc(F)cc1F [FLUCONAZOLE] | 8 µg/mL (≈ 26.1 µM) | 16 µg/mL (≈ 52.2 µM)

test system: Nakaseomyces glabratus; test: Antifungal activity against 43 days cultured Candida glabrata isolated from HSCT recipient with acute or chronic GVHD mouth receiving antifungal therapy for 172 days after 114 days of prophylaxis by broth microdilution method; type: functional; details: not given

SMILES | MIC
OC(Cn1cncn1)(Cn1cncn1)c1ccc(F)cc1F [FLUCONAZOLE] | 16 µg/mL (≈ 52.2 µM)

test system: Candida albicans; test: Antifungal activity against Candida albicans isolated from HSCT recipients with acute or chronic GVHD receiving fluconazole by broth microdilution method; type: functional; details: not given

SMILES | MIC50 | MIC90
OC(Cn1cncn1)(Cn1cncn1)c1ccc(F)cc1F [FLUCONAZOLE] | 1 µg/mL (≈ 3.27 µM) | 64 µg/mL (≈ 209 µM)

test system: Candida albicans; test: Antifungal activity against Candida albicans isolated from HSCT recipients with acute or chronic GVHD prior to initiation of fluconazole therapy by broth microdilution method; type: functional; details: not given

SMILES | MIC50 | MIC90
OC(Cn1cncn1)(Cn1cncn1)c1ccc(F)cc1F [FLUCONAZOLE] | 0.25 µg/mL (≈ 0.816 µM) | 1 µg/mL (≈ 3.27 µM)

test system: Nakaseomyces glabratus; test: Antifungal activity against 59 days cultured Candida glabrata isolated from HSCT recipient with acute or chronic GVHD mouth receiving antifungal therapy for 75 days after 33 days of prophylaxis by broth microdilution method; type: functional; details: not given

SMILES | MIC
OC(Cn1cncn1)(Cn1cncn1)c1ccc(F)cc1F [FLUCONAZOLE] | 16 µg/mL (≈ 52.2 µM)

test system: Candida albicans; test: Antifungal activity against Candida albicans isolated from neutropenic subjects with AML or MDS prior to initiation of fluconazole therapy by broth microdilution method; type: functional; details: not given

SMILES | MIC50 | MIC90
OC(Cn1cncn1)(Cn1cncn1)c1ccc(F)cc1F [FLUCONAZOLE] | 0.125 µg/mL (≈ 0.408 µM) | 0.25 µg/mL (≈ 0.816 µM)

test system: Nakaseomyces glabratus; test: Antifungal activity against 31 days cultured Candida glabrata isolated from HSCT recipient with acute or chronic GVHD mouth receiving antifungal therapy for 31 days after 28 days of prophylaxis by broth microdilution method; type: functional; details: not given

SMILES | MIC
OC(Cn1cncn1)(Cn1cncn1)c1ccc(F)cc1F [FLUCONAZOLE] | < 4 µg/mL

test system: Nakaseomyces glabratus; test: Antifungal activity against Candida glabrata isolated from HSCT recipients with acute or chronic GVHD prior to initiation of fluconazole therapy assessed as maximum MIC by broth microdilution method; type: functional; details: not given

SMILES | MIC
OC(Cn1cncn1)(Cn1cncn1)c1ccc(F)cc1F [FLUCONAZOLE] | 64 µg/mL

test system: Nakaseomyces glabratus; test: Antifungal activity against Candida glabrata isolated from neutropenic subjects with AML or MDS receiving posaconazole by broth microdilution method; type: functional; details: not given

SMILES | MIC50 | MIC90
OC(Cn1cncn1)(Cn1cncn1)c1ccc(F)cc1F [FLUCONAZOLE] | 8 µg/mL (≈ 26.1 µM) | 64 µg/mL (≈ 209 µM)

test system: Nakaseomyces glabratus; test: Antifungal activity against Candida glabrata isolated from neutropenic subject 1491 with AML or MDS pharynx receiving antifungal drug after 23 days prophylaxis by broth microdilution method; type: functional; details: 552 h

SMILES | MIC
OC(Cn1cncn1)(Cn1cncn1)c1ccc(F)cc1F [FLUCONAZOLE] | > 64 µg/mL

test system: Nakaseomyces glabratus; test: Antifungal activity against Candida glabrata isolated from HSCT recipient 474 with acute or chronic GVHD mouth receiving antifungal drug after 124 days prophylaxis by broth microdilution method; type: functional; details: not given

SMILES | MIC
OC(Cn1cncn1)(Cn1cncn1)c1ccc(F)cc1F [FLUCONAZOLE] | 64 µg/mL (≈ 209 µM)

test system: Nakaseomyces glabratus; test: Antifungal activity against Candida glabrata isolated from HSCT recipient 186 with acute or chronic GVHD mouth receiving antifungal drug after 112 days prophylaxis by broth microdilution method; type: functional; details: not given

SMILES | MIC
OC(Cn1cncn1)(Cn1cncn1)c1ccc(F)cc1F [FLUCONAZOLE] | 32 µg/mL (≈ 104 µM)

test system: Nakaseomyces glabratus; test: Antifungal activity against Candida glabrata isolated from neutropenic subject 1491 with AML or MDS pharynx after 23 days prophylaxis by broth microdilution method; type: functional; details: 552 h

SMILES | MIC
OC(Cn1cncn1)(Cn1cncn1)c1ccc(F)cc1F [FLUCONAZOLE] | 4 µg/mL (≈ 13.1 µM)

test system: Nakaseomyces glabratus; test: Antifungal activity against Candida glabrata isolated from HSCT recipient 807 with acute or chronic GVHD mouth after 114 days prophylaxis by broth microdilution method; type: functional; details: not given

SMILES | MIC
OC(Cn1cncn1)(Cn1cncn1)c1ccc(F)cc1F [FLUCONAZOLE] | 16 µg/mL (≈ 52.2 µM)

test system: Candida albicans; test: Antifungal activity against Candida albicans isolated from HSCT recipients with acute or chronic GVHD receiving fluconazole assessed as maximum MIC by broth microdilution method; type: functional; details: not given

SMILES | MIC
OC(Cn1cncn1)(Cn1cncn1)c1ccc(F)cc1F [FLUCONAZOLE] | 64 µg/mL

test system: Candida albicans; test: Antifungal activity against Candida albicans isolated from HSCT recipient 042 with acute or chronic GVHD mouth receiving antifungal drug after 112 days prophylaxis by broth microdilution method; type: functional; details: not given

SMILES | MIC
OC(Cn1cncn1)(Cn1cncn1)c1ccc(F)cc1F [FLUCONAZOLE] | 1 µg/mL (≈ 3.27 µM)

test system: Pichia kudriavzevii; test: Antifungal activity against Candida krusei isolated from HSCT recipients with acute or chronic GVHD receiving fluconazole by broth microdilution method; type: functional; details: not given

SMILES | MIC50 | MIC90
OC(Cn1cncn1)(Cn1cncn1)c1ccc(F)cc1F [FLUCONAZOLE] | 64 µg/mL (≈ 209 µM) | 64 µg/mL (≈ 209 µM)

test system: Pichia kudriavzevii; test: Antifungal activity against 6 days cultured Candida krusei isolated from neutropenic subject with AML or MDS pharynx receiving antifungal therapy for 19 days after 6 days of prophylaxis by broth microdilution method; type: functional; details: not given

SMILES | MIC
OC(Cn1cncn1)(Cn1cncn1)c1ccc(F)cc1F [FLUCONAZOLE] | 32 µg/mL (≈ 104 µM)

test system: Nakaseomyces glabratus; test: Antifungal activity against Candida glabrata isolated from HSCT recipient 491 with acute or chronic GVHD mouth receiving antifungal drug after 112 days prophylaxis by broth microdilution method; type: functional; details: not given

SMILES | MIC
OC(Cn1cncn1)(Cn1cncn1)c1ccc(F)cc1F [FLUCONAZOLE] | 32 µg/mL (≈ 104 µM)

test system: Nakaseomyces glabratus; test: Antifungal activity against Candida glabrata isolated from HSCT recipient 270 with acute or chronic GVHD mouth receiving antifungal drug after 108 days prophylaxis by broth microdilution method; type: functional; details: not given

SMILES | MIC
OC(Cn1cncn1)(Cn1cncn1)c1ccc(F)cc1F [FLUCONAZOLE] | 8 µg/mL (≈ 26.1 µM)

test system: Nakaseomyces glabratus; test: Antifungal activity against 7 days cultured Candida glabrata isolated from neutropenic subject with AML or MDS stool receiving antifungal therapy for 37 days after 9 days of prophylaxis by broth microdilution method; type: functional; details: not given

SMILES | MIC
OC(Cn1cncn1)(Cn1cncn1)c1ccc(F)cc1F [FLUCONAZOLE] | 8 µg/mL (≈ 26.1 µM)

test system: Candida albicans; test: Antifungal activity against Candida albicans isolated from neutropenic subjects with AML or MDS receiving fluconazole by broth microdilution method; type: functional; details: not given

SMILES | MIC50 | MIC90
OC(Cn1cncn1)(Cn1cncn1)c1ccc(F)cc1F [FLUCONAZOLE] | 0.25 µg/mL (≈ 0.816 µM) | 0.5 µg/mL (≈ 1.63 µM)

test system: Nakaseomyces glabratus; test: Antifungal activity against 35 days cultured Candida glabrata isolated from HSCT recipient with acute or chronic GVHD mouth receiving antifungal therapy for 165 days after 138 days of prophylaxis by broth microdilution method; type: functional; details: not given

SMILES | MIC
OC(Cn1cncn1)(Cn1cncn1)c1ccc(F)cc1F [FLUCONAZOLE] | 64 µg/mL (≈ 209 µM)

test system: Nakaseomyces glabratus; test: Antifungal activity against Candida glabrata isolated from HSCT recipient 975 with acute or chronic GVHD mouth receiving antifungal drug after 112 days prophylaxis by broth microdilution method; type: functional; details: not given

SMILES | MIC
OC(Cn1cncn1)(Cn1cncn1)c1ccc(F)cc1F [FLUCONAZOLE] | 128 µg/mL (≈ 418 µM)

test system: Nakaseomyces glabratus; test: Antifungal activity against Candida glabrata isolated from HSCT recipient 497 with acute or chronic GVHD mouth after 114 days prophylaxis by broth microdilution method; type: functional; details: not given

SMILES | MIC
OC(Cn1cncn1)(Cn1cncn1)c1ccc(F)cc1F [FLUCONAZOLE] | 16 µg/mL (≈ 52.2 µM)

test system: Nakaseomyces glabratus; test: Antifungal activity against -2 days cultured Candida glabrata isolated from HSCT recipient with acute or chronic GVHD mouth receiving antifungal therapy for 168 days after 113 days of prophylaxis by broth microdilution method; type: functional; details: not given

SMILES | MIC
OC(Cn1cncn1)(Cn1cncn1)c1ccc(F)cc1F [FLUCONAZOLE] | 64 µg/mL (≈ 209 µM)

test system: Candida albicans; test: Antifungal activity against Candida albicans isolated from HSCT recipient 462 with acute or chronic GVHD mouth receiving antifungal drug after 112 days prophylaxis by broth microdilution method; type: functional; details: not given

SMILES | MIC
OC(Cn1cncn1)(Cn1cncn1)c1ccc(F)cc1F [FLUCONAZOLE] | 8 µg/mL (≈ 26.1 µM)
